From ChEMBL document CHEMBL1201862, “PubChem BioAssay data set” (2004)
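These data come from cells grown in 96-well plates and exposed to compound for 48 hours at five concentrations. GI50 is the concentration that inhibits growth by half.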 Calls of active or inactive are those of the source. Rule as the data show it: active = GI50 up to about 1.1 µM and inactive = higher.

How the values were obtained:
Assay in all cases: NCI tumour cell line growth inhibition, 48 h
COLO 205 = test system: COLO 205
HOP-62 = test system: HOP-62
RPMI-8226 = test system: RPMI-8226
SK-MEL-28 = test system: SK-MEL-28
MOLT-4 = test system: MOLT-4
CCRF-CEM = test system: CCRF-CEM
786-0 = test system: 786-0
CAKI-1 = test system: CAKI-1
OVCAR-8 = test system: OVCAR-8
HT-29 = test system: HT-29
SF-539 = test system: SF-539
NCI-H522 = test system: NCI-H522
SN12C = test system: SN12C
HOP-92 = test system: HOP-92
M14 = test system: M14
KM12 = test system: KM12
IGROV-1 = test system: IGROV-1
NCI-H460 = test system: NCI-H460
HL-60 = test system: HL-60

Measured: GI50

CCOC(OCC)(OCC)C(Br)CC (centres undefined)
inactive: COLO 205 31.8 µM | HOP-62 > 100 µM | RPMI-8226 18.8 µM | SK-MEL-28 > 100 µM | MOLT-4 > 100 µM | CCRF-CEM 28.2 µM | 786-0 16.4 µM | CAKI-1 > 100 µM | OVCAR-8 > 100 µM | HT-29 53.6 µM | SF-539 > 100 µM | NCI-H522 > 100 µM | SN12C 64.9 µM | HOP-92 > 100 µM | M14 > 100 µM | KM12 > 100 µM | IGROV-1 > 100 µM | NCI-H460 > 100 µM | HL-60 > 100 µM

COC1OC(CBr)C(OC(c2ccccc2)(c2ccccc2)c2ccccc2)C(OC(c2ccccc2)(c2ccccc2)c2ccccc2)C1OC(c1ccccc1)(c1ccccc1)c1ccccc1 (centres undefined)
inactive: COLO 205 > 100 µM | HOP-62 25.2 µM | RPMI-8226 65.3 µM | SK-MEL-28 > 100 µM | MOLT-4 > 100 µM | CCRF-CEM > 100 µM | 786-0 19.4 µM | CAKI-1 > 100 µM | OVCAR-8 27.1 µM | HT-29 96.6 µM | SF-539 23.1 µM | NCI-H522 16 µM | SN12C 41.3 µM | HOP-92 17.1 µM | M14 51.8 µM | KM12 > 100 µM | IGROV-1 78.2 µM | NCI-H460 46.1 µM | HL-60 > 100 µM

Cc1nc(-c2ccccc2)cc2c1c(=O)oc1ccccc12
inactive: COLO 205 > 100 µM | HOP-62 > 100 µM | RPMI-8226 > 100 µM | SK-MEL-28 > 100 µM | MOLT-4 > 100 µM | CCRF-CEM > 100 µM | 786-0 > 100 µM | CAKI-1 > 100 µM | OVCAR-8 > 100 µM | HT-29 > 100 µM | SF-539 > 100 µM | NCI-H522 > 100 µM | SN12C > 100 µM | HOP-92 > 100 µM | M14 > 100 µM | KM12 > 100 µM | IGROV-1 > 100 µM | NCI-H460 > 100 µM | HL-60 > 100 µM

COc1ccc(C(=O)c2c(C(C(=O)c3ccc(OC)cc3)C(=O)c3ccc(OC)cc3)n(C(=O)c3ccc(OC)cc3)c3ccccc23)cc1
inactive: COLO 205 > 100 µM | HOP-62 > 100 µM | RPMI-8226 > 100 µM | SK-MEL-28 > 100 µM | MOLT-4 > 100 µM | CCRF-CEM > 100 µM | 786-0 > 100 µM | CAKI-1 > 100 µM | OVCAR-8 > 100 µM | HT-29 > 100 µM | SF-539 > 100 µM | NCI-H522 > 100 µM | SN12C > 100 µM | HOP-92 > 100 µM | M14 > 100 µM | KM12 > 100 µM | IGROV-1 > 100 µM | NCI-H460 > 100 µM | HL-60 > 100 µM

CCN(CC)/C(=C\Cl)Nc1ccccn1.[O-][Cl+3]([O-])([O-])O
inactive: COLO 205 > 100 µM | HOP-62 > 100 µM | RPMI-8226 > 100 µM | SK-MEL-28 > 100 µM | MOLT-4 > 100 µM | CCRF-CEM > 100 µM | 786-0 > 100 µM | CAKI-1 > 100 µM | OVCAR-8 > 100 µM | HT-29 > 100 µM | SF-539 > 100 µM | NCI-H522 > 100 µM | SN12C > 100 µM | HOP-92 > 100 µM | M14 > 100 µM | KM12 > 100 µM | IGROV-1 > 100 µM | NCI-H460 > 100 µM | HL-60 > 100 µM

O=c1[nH]c(=O)n(C2OC(CO)C(O)C2O)cc1/N=N/NCc1ccccc1 (centres undefined)
inactive: COLO 205 > 69.2 µM | HOP-62 > 100 µM | RPMI-8226 > 59.6 µM | SK-MEL-28 > 100 µM | MOLT-4 > 100 µM | CCRF-CEM > 69.5 µM | 786-0 > 100 µM | CAKI-1 > 100 µM | OVCAR-8 > 100 µM | HT-29 > 100 µM | SF-539 > 100 µM | NCI-H522 > 100 µM | SN12C > 100 µM | HOP-92 > 100 µM | M14 > 100 µM | KM12 > 100 µM | IGROV-1 > 100 µM | NCI-H460 > 69.2 µM | HL-60 > 64.3 µM

CCCNC(=O)c1cc2ccccc2cc1C(=O)OC
inactive: COLO 205 > 100 µM | HOP-62 > 100 µM | RPMI-8226 60.8 µM | SK-MEL-28 > 100 µM | MOLT-4 > 100 µM | CCRF-CEM > 100 µM | 786-0 > 100 µM | CAKI-1 > 100 µM | OVCAR-8 > 100 µM | HT-29 > 100 µM | SF-539 > 100 µM | NCI-H522 > 100 µM | SN12C > 100 µM | HOP-92 59.2 µM | M14 > 100 µM | KM12 > 100 µM | IGROV-1 > 100 µM | NCI-H460 > 100 µM | HL-60 > 100 µM

CCCCCCCC(=O)OCC1OC(n2cc(F)c(=O)[nH]c2=O)C(N)C(OC(=O)CCCCCCC)C1O (centres undefined)
inactive: COLO 205 18.5 µM | HOP-62 18.6 µM | RPMI-8226 23.2 µM | SK-MEL-28 17.3 µM | MOLT-4 15.5 µM | CCRF-CEM 17.6 µM | 786-0 19.4 µM | CAKI-1 16.8 µM | OVCAR-8 17.8 µM | HT-29 19.3 µM | SF-539 20.5 µM | NCI-H522 14.5 µM | SN12C 17.5 µM | HOP-92 18.4 µM | M14 17.9 µM | KM12 21.2 µM | IGROV-1 20.3 µM | NCI-H460 19.4 µM | HL-60 20.2 µM

Nn1c(-c2ccccc2Cl)nc2ccccc2c1=O
inactive: COLO 205 > 100 µM | HOP-62 > 100 µM | RPMI-8226 > 100 µM | SK-MEL-28 > 100 µM | MOLT-4 > 100 µM | CCRF-CEM > 100 µM | 786-0 > 100 µM | CAKI-1 > 100 µM | OVCAR-8 > 100 µM | HT-29 > 100 µM | SF-539 > 100 µM | NCI-H522 > 100 µM | SN12C > 100 µM | HOP-92 > 100 µM | M14 > 100 µM | KM12 > 100 µM | IGROV-1 > 100 µM | NCI-H460 > 100 µM | HL-60 > 100 µM

Cc1nc(Nc2ccc(Cl)cc2)sc1C(=O)NNc1ccc([N+](=O)[O-])cc1[N+](=O)[O-]
inactive: COLO 205 19.8 µM | HOP-62 12.2 µM | RPMI-8226 18.2 µM | SK-MEL-28 19.9 µM | MOLT-4 15 µM | CCRF-CEM 17.8 µM | 786-0 16.3 µM | CAKI-1 23.6 µM | OVCAR-8 21.4 µM | SF-539 17.3 µM | NCI-H522 14 µM | SN12C 17.7 µM | HOP-92 23.6 µM | M14 24.7 µM | KM12 15.8 µM | IGROV-1 20.9 µM | NCI-H460 18 µM | HL-60 16 µM
